Holding throughout (type): cell-based
For assay [1], the target named is T1, RORd1 (Oryzias latipes, UniProt H2LFF5).
T1 construct: gene rorca
T1 sequence (H2LFF5 98-473): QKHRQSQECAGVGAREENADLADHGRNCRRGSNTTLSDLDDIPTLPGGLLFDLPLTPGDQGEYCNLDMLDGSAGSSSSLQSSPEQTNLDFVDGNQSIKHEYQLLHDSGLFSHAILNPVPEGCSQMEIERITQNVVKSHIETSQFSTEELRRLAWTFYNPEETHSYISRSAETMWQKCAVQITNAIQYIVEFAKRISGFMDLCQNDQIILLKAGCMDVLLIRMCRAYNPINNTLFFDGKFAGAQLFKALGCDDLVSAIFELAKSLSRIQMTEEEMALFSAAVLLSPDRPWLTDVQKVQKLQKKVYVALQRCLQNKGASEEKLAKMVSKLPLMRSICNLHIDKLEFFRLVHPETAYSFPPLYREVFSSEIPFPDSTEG
As to the kind of experiment: Gal4-RORd1 LBD luciferase reporter assay in stable HEK293 cells (agonist).

Assay [2] addresses T1, RORd1. As to the kind of experiment: Gal4-RORd1 LBD luciferase reporter assay in stable HEK293 cells (weak agonist, […], EC50 not calculable).
The target of assay [3] is T1, RORd1. Described as above. This is another data set of the same source.

The structures appear in SMILES notation.

Take `CC1=C(/C=C/C(C)=C/C=C/C(C)=C/C(=O)O)C(C)(C)CCC1=O` [4 K–ATRA, all-trans 4-ketoretinoic acid]: it took 737 ± 47.3 nM to reach a half-maximal effect in assay [1] (EC50).
Same read-out and setting: the result for `CC1=C(/C=C/C(C)=C/C=C/C(C)=C/C(=O)O)C(C)(C)CCC1O` (stereo not drawn) [4OH-ATRA, all-trans 4-hydroxyretinoic acid] reads 539 ± 97.3 nM.
Take `CC(/C=C/C12OC1(C)CCCC2(C)C)=C\C=C\C(C)=C\C(=O)O` (stereo not drawn) [5,6E–ATRA, all-trans 5,6-epoxyretinoic acid]: the 50% effective concentration (EC50) – broadly, the midpoint of the concentration-response curve – in assay [2] was more than 10000 nM.
`CC1=C(/C=C/C(C)=C/C=C/C(C)=C/C(=O)O)C(C)(C)CCC1` [ATRA, all-trans retinoic acid]: the EC50 in assay [3] is more than 10000 nM.
